Test results reported in patent publication US10301264B2, “Compounds useful for treating ocular neovasculan” (The University of Nottingham, priority 2012, dated 2019).
Read-outs that look alike come from different tables or passages of the source. Blank lines part the entries; values can stand above or below the molecule they belong to.

Columns and labels:
SRPK1 = SRPK1 (Homo sapiens, UniProt Q96SB4); assay: In vitro kinase assay (Kinase-Glo), SRPK1; type: biochemical; conditions: for activity in the in vitro SRPK1 kinase assay: words
SRPK2 = SRPK2 (Homo sapiens, UniProt P78362); assay: In vitro kinase assay, SRPK2; type: biochemical
[1] = system: SRPK1 expression in ARPE-19 cells; assay: SRPK1 expression in ARPE-19 cells (western blot); type: cell-based, human; conditions: 10 μM, up to six days
laser-induced CNV = assay: Laser-induced mouse CNV model, intravitreal injection; type: in vivo
Protocol: Laser Lesion Induction Protocol
Six to eight week-old C57/B6 mice (B&K Laboratories) and adult Norway-Brown rats (Harlan Laboratories) were anaesthetized with an intraperitoneal injection of a mixture of 50 mg/kg ketamine and 0.5 mg/kg medetomidine. The pupils were dilated with 2.5% phenylephrine hydrochloride and 1% tropicamide. Four photocoagulation lesions were delivered with a krypton red laser (Mice: 250 mW, 0.01 s, 75 μm, Rats: 200 mW, 0.01 s, 75 μm, IRIS Medical 810 nm Oculight Slx laser) between the retinal vessels in a peripapillary distribution at a distance of 1-2 disc-diameters in each eye. Only laser lesions with a subretinal bubble at the time of treatment were included in the study. […] Animals were culled on either day 4 or day 14 and eyes were either unfixed for retinal dissection and protein extraction, or fixed and enucleated and choroids stained for isolectin-B4 and examined.

neovascular AMD = conditions: 0.5 mg monthly, at one year; cited from earlier work
[2] = Table 1, read-out: IC50 (nM) for SRPK1

Chain of SRPK1 (Q96SB4 whole entry, species assumed): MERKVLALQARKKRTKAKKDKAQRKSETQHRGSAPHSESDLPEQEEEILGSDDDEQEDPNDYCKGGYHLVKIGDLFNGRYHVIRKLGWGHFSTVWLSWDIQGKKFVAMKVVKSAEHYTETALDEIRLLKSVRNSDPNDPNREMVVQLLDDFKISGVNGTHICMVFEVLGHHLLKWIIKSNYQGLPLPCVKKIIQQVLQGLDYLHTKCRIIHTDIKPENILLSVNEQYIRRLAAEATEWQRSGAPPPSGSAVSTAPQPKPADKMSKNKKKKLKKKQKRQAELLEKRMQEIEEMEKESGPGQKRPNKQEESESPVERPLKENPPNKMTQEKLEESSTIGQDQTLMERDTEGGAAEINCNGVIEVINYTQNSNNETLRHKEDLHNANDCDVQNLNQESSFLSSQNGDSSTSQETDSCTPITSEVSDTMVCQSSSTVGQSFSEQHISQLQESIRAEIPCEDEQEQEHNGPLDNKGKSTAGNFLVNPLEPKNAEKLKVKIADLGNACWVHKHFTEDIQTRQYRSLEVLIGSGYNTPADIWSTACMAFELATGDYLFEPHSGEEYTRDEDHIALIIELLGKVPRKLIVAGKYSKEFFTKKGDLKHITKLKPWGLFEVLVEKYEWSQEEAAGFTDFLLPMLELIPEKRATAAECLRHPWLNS
Chain of SRPK2 (P78362 whole entry, species assumed): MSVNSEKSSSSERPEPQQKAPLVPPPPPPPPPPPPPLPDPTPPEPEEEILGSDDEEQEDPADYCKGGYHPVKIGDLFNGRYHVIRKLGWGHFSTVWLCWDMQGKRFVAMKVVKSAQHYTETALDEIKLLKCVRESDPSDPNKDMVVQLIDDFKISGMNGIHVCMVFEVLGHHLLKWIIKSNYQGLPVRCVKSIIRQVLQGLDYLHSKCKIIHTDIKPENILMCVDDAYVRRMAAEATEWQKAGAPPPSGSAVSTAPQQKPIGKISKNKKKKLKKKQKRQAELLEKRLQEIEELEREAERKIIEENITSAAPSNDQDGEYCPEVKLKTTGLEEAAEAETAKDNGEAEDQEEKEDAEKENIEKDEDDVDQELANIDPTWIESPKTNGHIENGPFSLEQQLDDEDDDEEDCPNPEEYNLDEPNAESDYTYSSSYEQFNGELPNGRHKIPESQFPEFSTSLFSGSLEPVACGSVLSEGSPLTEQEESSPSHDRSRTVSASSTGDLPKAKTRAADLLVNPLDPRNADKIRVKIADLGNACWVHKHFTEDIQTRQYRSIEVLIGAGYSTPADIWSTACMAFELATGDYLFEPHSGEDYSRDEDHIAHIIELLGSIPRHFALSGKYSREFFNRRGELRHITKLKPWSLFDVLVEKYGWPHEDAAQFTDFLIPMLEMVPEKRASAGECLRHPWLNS

IC50 (SRPK1; [2]): 367 nM
Molecule: CN1CCN(c2ccc(C(F)(F)F)cc2NC(=O)c2ccc(-c3cccnc3)o2)CC1 [SPHINX12]

preference for SRPK1 over SRPK2 (SRPK2): greater than 10 fold | inhibition at 10 µM (SRPK2; at 10 μM): 10%
Molecule: Cc1ccc(C(=O)Nc2cc(C(F)(F)F)ccc2N2CCOCC2)o1 [SPHINX, 5-methyl-N-[2-(morpholin-4-yl)-5-(trifluoromethyl)phenyl]furan-2-carboxamide]
SRPK1 expression [1]: did appear to reduce SRPK1 expression | area of neovascular lesions, mouse laser-induced CNV model (laser-induced CNV; discussion summary, route not stated): achieving significance | neovascular area vs control injected eyes (laser-induced CNV; two intravitreal injections of 10 ng, mouse): significantly reduced neovascular area

IC50 (SRPK1; [2]): 1270 nM
Molecule: CN1CCN(c2ccc(C(F)(F)F)cc2NC(=O)c2ccc(C#N)o2)CC1 [SPHINX14]

More lines, now with the values behind:

Molecule: O=C(Nc1cc(C(F)(F)F)ccc1NCc1cccnc1)c1ccc(-c2ccncc2)o1 [SPHINX10]
IC50 (SRPK1; [2]): > 10000 nM | activity in the in vitro SRPK1 kinase assay (SRPK1): no activity

Molecule: O=C(Nc1cc(C(F)(F)F)ccc1NCc1cccnc1)c1ccc(-c2cccnc2)o1 [SPHINX9]
IC50 (SRPK1; [2]): > 10000 nM | activity in the in vitro SRPK1 kinase assay (SRPK1): no activity

Molecule: CN(C)CCN1CCN(c2ccc(C(F)(F)F)cc2NC(=O)c2ccc(-c3cccnc3)o2)CC1 [SPHINX6]
IC50 (SRPK1; FIG. 7, read-out: SRPK1 inhibition IC50): 173 nM | IC50 (SRPK1; [2]): 177 nM

Molecule: CN(C)CCNc1ccc(C(F)(F)F)cc1NC(=O)c1ccc(-c2cccnc2)o1 [SPHINX8]
IC50 (SRPK1; [2]): 9310 nM | activity in the in vitro SRPK1 kinase assay (SRPK1): no activity

B1: Lucentis: humanized anti-VEGF antibody fragment, FDA approved for the treatment of neovascular AMD (antibody, chains of the INN, looked up, V domains shown)
VH: EVQLVESGGGLVQPGGSLRLSCAASGYDFTHYGMNWVRQAPGKGLEWVGWINTYTGEPTYAADFKRRFTFSLDTSKSTAYLQMNSLRAEDTAVYYCAKYPYYYGTSHWYFDVWGQGTLVTVSS
VL: DIQLTQSPSSLSASVGDRVTITCSASQDISNYLNWYQQKPGKAPKVLIYFTSSLHSGVPSRFSGSGSGTDFTLTISSLQPEDFATYYCQQYSTVPWTFGQGTKVEIK
modifications: Fab
notes: humanized anti-VEGF antibody fragment, FDA approved for the treatment of neovascular AMD
patients who maintained visual acuity (loss of <15 letters) (neovascular AMD): approximately 95% | patients with improved vision (gain of ≥15 letters) (neovascular AMD): ≤ 40%
